Assay results: patent US20260078114A1, “COMPOUND USED AS INHIBITOR OF CDK4 KINASE AND USE THEREOF” (TYK MEDICINES, INC., priority 2022, published 2026)
Like-named read-outs stand apart in the source and are kept apart here.

What was measured:
CDK6/CyclinD3 = CDK6/CyclinD3 (Homo sapiens, UniProt Q00534); assay: Kinase activity test (mobility shift assay, EZ Reader), CDK6; assay type: biochemical; details: CDK6/CyclinD3 5.00 nM, ATP 350 μM, FL-Peptide34
[1] = test system: Human breast cancer cell MCF-7; assay: Cellular antiproliferative assay (MTT, 5 days), MCF-7; assay type: cell-based; details: MCF-7 cells, 5 days incubation
Description: (§1) Human breast cancer cell MCF-7, ovarian cancer cell A2780, human mantle cell lymphoma cell JEKO-1. DMEM medium (Bio-Channel), DMSO (dimethyl sulfoxide), MTT (thiazolyl blue), 0.25% EDTA-Tripsin (tryptic digest), 1×PBS (phosphate buffer, PH7.2), 96-well plate (Corning), fetal bovine serum (FBS), 10,000 U/mL penicillin-G/streptomycin, high-speed cryo-centrifuge (EPPENDORF 5810R), enzyme-linked immunoassay (Tecan Spark).
(§2) • A) Tumor cells were cultured in DMEM (high sugar with 10% FBS and 100 U/mL penicillin-G/streptomycin) at 37° C., 5% CO2 and saturated humidity until 80-90% dense. • B) Removed the culture medium from 10 cm Petri dishes; • C) Rinsed the cells once with 10 ml 1×PBS; • D) Added 4 ml 0.25% EDTA-Tripsin into 37° C., 5% CO2 incubator for trypsin digestion for 5 minutes, transferred to 15 ml centrifuge tube, centrifuged at 200 g for 5 minutes, discarded the supernatant to get cell precipitate; • E) Resuspended with 4 ml DMEM medium, counted and adjust to 50,000 cells/ml. • F) Added cell suspension to 96-well plate with 100 μL per well volume and incubated overnight at 37° C., 5% CO2 incubator.
(§3) • A) Preparation of gradient dilution solution of the tested compound: the test compound was configured into 1 mM reservoir solution.
(§4) • A) Taking the cell culture plate and adding 10 μL of 5 mg/ml MTT in the biosafety cabinet; • B) Putting the cell culture plate back into the incubator and continued incubation for 3 hours; • C) Taking the cell culture plate and removing the culture medium, adding 100 μL isopropanol (containing 0.4 mM HCl, 0.1% NP-40), and shaking the bed at room temperature for 30 min; and • D) Determining the absorbance value by selecting 570 nm on a TECAN enzyme-linked immunoassay detector.
(§5) The % Cell Viability was calculated using the following formula:
(§6) [formula] • Lum_HC: 0.1% DMSO control cell reading • Lum_Sample: cell readings with compound added • Lum_LC: Blank medium reading

[2] = test system: ovarian cancer cell A2780; assay: Cellular antiproliferative assay (MTT, 5 days), A2780; assay type: cell-based, human; details: A2780 cells, 5 days incubation
Description: as §1, §2, §3, §4, §5, §6

[3] = test system: human mantle cell lymphoma cell JEKO-1; assay: Cellular antiproliferative assay (MTT, 5 days), JEKO-1; assay type: cell-based; details: JEKO-1 cells, 5 days incubation
Description: as §1, §2, §3, §4, §5, §6

CDK6/CyclinD3, sequence (Q00534 whole entry, species assumed): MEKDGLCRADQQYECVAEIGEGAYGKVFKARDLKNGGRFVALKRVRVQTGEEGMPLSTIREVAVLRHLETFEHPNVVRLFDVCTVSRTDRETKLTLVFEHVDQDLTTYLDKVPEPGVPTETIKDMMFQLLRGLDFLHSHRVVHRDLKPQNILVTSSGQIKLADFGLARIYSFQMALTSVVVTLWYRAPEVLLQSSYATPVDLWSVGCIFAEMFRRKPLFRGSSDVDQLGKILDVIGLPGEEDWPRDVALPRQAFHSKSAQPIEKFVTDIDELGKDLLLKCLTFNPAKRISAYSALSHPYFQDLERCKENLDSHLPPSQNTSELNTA
CDK6/CyclinD3, sequence (P30281 whole entry partner, species assumed): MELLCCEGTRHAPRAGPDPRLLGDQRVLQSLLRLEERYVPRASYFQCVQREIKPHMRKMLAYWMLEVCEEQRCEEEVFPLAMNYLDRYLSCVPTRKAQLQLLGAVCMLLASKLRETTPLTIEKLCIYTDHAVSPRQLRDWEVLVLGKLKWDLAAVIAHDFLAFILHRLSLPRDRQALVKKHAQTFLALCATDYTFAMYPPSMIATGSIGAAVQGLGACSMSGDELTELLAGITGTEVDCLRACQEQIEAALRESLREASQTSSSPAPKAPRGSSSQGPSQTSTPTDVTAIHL

Row | Structure (SMILES) | IC50 (CDK6/CyclinD3) [nM] | IC50 ([1]; Homo sapiens, MCF7, 120 h) [nM] | IC50 ([2]; Homo sapiens, 120 h) [nM] | IC50 ([3]; Homo sapiens, 120 h) [nM] | IC50 ([1]; read-out: MCF7 IC50) [nM] | IC50 [2] [nM] | IC50 [3] [nM]
1 | CC(C)n1c(N2CCOC2=O)nc2c(F)cc(-c3nc(Nc4ccc(S(=O)(=O)NC5(C#N)CC5)cc4)ncc3Cl)cc21 [TB-68] | > 500 |  |  |  |  |  | 
2 | CC(C)n1c(N(C)C)nc2c(F)cc(-c3nc(N[C@H]4CC[C@@H](NS(C)(=O)=O)CC4)ncc3Cl)cc21 [TB-4] | > 500 |  |  |  |  |  | 
3 | CC(C)n1c(N2CCCC2=O)nc2c(F)cc(-c3nc(N[C@@H]4CCOC[C@H]4O)ncc3Cl)cc21 [TA-54] | > 500 |  |  |  |  |  | 
4 | CC(C)n1c(N2CCOC2=O)nc2c(F)cc(-c3nc(NC4CCN(S(C)(=O)=O)CC4(F)F)ncc3Cl)cc21 (stereo not shown) [TB-35] |  | ≤ 500 | ≤ 500 | ≤ 500 |  |  | 
5 | COCc1cc(Nc2ncc(Cl)c(-c3cc(F)c4nc5n(c4c3)CCCN5C)n2)ccn1 [TB-130, 5-chloro-4-(9-fluoro-1-methyl-1,2,3,4-tetrahydrobenzo[4,5]imidazo[1,2-a]pyrimidin-7-yl)-N-(2-(methoxymethyl)pyridin-4-yl)pyrimidin-2-amine] |  | ≤ 500 | ≤ 500 | ≤ 500 |  |  | 
6 | CN1CCn2c1nc1c(F)cc(-c3nc(NC4CCN(S(C)(=O)=O)CC4)ncc3Cl)cc12 [TB-52, 5-chloro-4-(8-fluoro-1-methyl-2,3-dihydro-1H-benzo[d]imidazo[1,2-a]imidazol-6-yl)-N-(1-(methylsulfonyl)piperidin-4-yl)pyrimidin-2-amine] |  | ≤ 500 | ≤ 500 | ≤ 500 |  |  | 
7 | CN1CCn2c1nc1c(F)cc(-c3nc(N[C@@H]4CCOC[C@H]4O)ncc3Cl)cc12 [TB-45, (3S,4R)-4-((5-chloro-4-(8-fluoro-1-methyl-2,3-dihydro-1H-benzo[d]imidazo[1,2-a]imidazol-6-yl)pyrimidin-2-yl)amino)tetrahydro-2H-pyran-3-ol] |  | ≤ 500 | ≤ 500 | ≤ 500 |  |  | 
8 | COc1cc(N2CCNCC2)ccc1Nc1ncc(Cl)c(-c2cc(F)c3nc(N(C)C)n(C(C)C)c3c2)n1 [TB-17, 6-(5-chloro-2-((2-methoxy-4-(piperazin-1-yl)phenyl)amino)pyrimidin-4-yl)-4-fluoro-1-isopropyl-N,N-dimethyl-1H-benzo[d]imidazol-2-amine] |  | 500 to 2000 | 500 to 2000 | 500 to 2000 |  |  | 
9 | CC(C)n1c(N2CCOC2=O)nc2c(F)cc(-c3nc(N[C@@H]4CCOC[C@H]4O)ncc3Cl)cc21 [TA-55] |  | ≤ 500 | ≤ 500 | ≤ 500 |  |  | 
10 | CC(C)n1c(N2CCCC2)nc2c(F)cc(-c3nc(N[C@@H]4CCOC[C@H]4O)ncc3Cl)cc21 [TB-11, (3S,4R)-4-((5-chloro-4-(4-fluoro-1-isopropyl-2-(pyrrolidin-1-yl)-1H-benzo[d]imidazol-6-yl)pyrimidin-2-yl)amino)tetrahydro-2H-pyran-3-ol] |  | ≤ 500 | ≤ 500 | ≤ 500 |  |  | 
11 | CN1CCCn2c1nc1c(F)cc(-c3nc(Nc4ccncc4)ncc3Cl)cc12 [TB-90] |  | 500 to 2000 | ≤ 500 | ≤ 500 |  |  | 
12 | CN1CCCn2c1nc1c(F)cc(-c3nc(N[C@@H]4CCOC[C@H]4O)ncc3Cl)cc12 [TB-40] |  | ≤ 500 | ≤ 500 | ≤ 500 |  |  | 
13 | CCN1CCN(Cc2ccc(Nc3ncc(Cl)c(-c4cc(F)c5nc(N(C)C)n(C(C)C)c5c4)n3)nc2)CC1 [TB-16] |  | ≤ 500 | ≤ 500 | ≤ 500 |  |  | 
14 | CC(C)n1c(N(C)C)nc2c(F)cc(-c3nc(N[C@H]4CC[C@H](NS(C)(=O)=O)CC4)ncc3Cl)cc21 [TB-5] |  | ≤ 500 | ≤ 500 | ≤ 500 |  |  | 
15 | CNS(=O)(=O)c1ccc(Nc2ncc(Cl)c(-c3cc(F)c4nc5n(c4c3)C(C)CCN5C)n2)cc1 (stereo not shown) [TB-53, 4-((5-chloro-4-(9-fluoro-1,4-dimethyl-1,2,3,4-tetrahydrobenzo[4,5]imidazo[1,2-a]pyrimidin-7-yl)pyrimidin-2-yl)amino)-N-methylbenzenesulfonamide] |  | ≤ 500 | ≤ 500 | ≤ 500 |  |  | 
16 | CN1CCCn2c1nc1c(F)cc(-c3nc(NC4CCC(F)(F)CC4)ncc3Cl)cc12 [TB-95, 5-chloro-N-(4,4-difluorocyclohexyl)-4-(9-fluoro-1-methyl-1,2,3,4-tetrahydrobenzo[4,5]imidazo[1,2-a]pyrimidin-7-yl)pyrimidin-2-amine] | > 500 |  |  |  |  |  | 
17 | CC(C)n1c(N2CC[C@H](O)C2)nc2c(F)cc(-c3nc(N[C@@H]4CCOC[C@H]4O)ncc3Cl)cc21 [TB-6, (S)-1-(6-(5-chloro-2-(((3S,4R)-3-hydroxytetrahydro-2H-pyran-4-yl)amino)pyrimidin-4-yl)-4-fluoro-1-isopropyl-1H-benzo[d]imidazol-2-yl)pyrrolidin-3-ol] |  | 500 to 2000 | ≤ 500 | ≤ 500 |  |  | 
18 | C[C@@H]1CCN(C)c2nc3c(F)cc(-c4nc(N[C@@H]5CCOC[C@H]5O)ncc4Cl)cc3n21 [TB-91, (3S,4R)-4-((5-chloro-4-((R)-9-fluoro-1,4-dimethyl-1,2,3,4-tetrahydrobenzo[4,5]imidazo[1,2-a]pyrimidin-7-yl)pyrimidin-2-yl)amino)tetrahydro-2H-pyran-3-ol] |  | ≤ 500 | ≤ 500 | ≤ 500 |  |  | 
19 | CC(C)n1c(N(C)C)nc2c(F)cc(-c3nc(NC4CCOCC4)ncc3Cl)cc21 [TB-2, 6-(5-chloro-2-((tetrahydro-2H-pyran-4-yl)amino)pyrimidin-4-yl)-4-fluoro-1-isopropyl-N,N-dimethyl-1H-benzo[d]imidazol-2-amine] |  | ≤ 500 | ≤ 500 | ≤ 500 |  |  | 
20 | CC(C)n1c(N2CCCOC2=O)nc2c(F)cc(-c3nc(N[C@@H]4CCOC[C@H]4O)ncc3Cl)cc21 [TB-25] |  | 500 to 2000 | ≤ 500 | ≤ 500 |  |  | 
21 | C[C@H]1C[C@H](C)n2c(nc3c(F)cc(-c4nc(N[C@@H]5CCOC[C@H]5O)ncc4Cl)cc32)N1C [TB-153] |  | ≤ 500 | ≤ 500 | ≤ 500 |  |  | 
22 | CN1C(=O)CC(C)(C)n2c1nc1c(F)cc(-c3cc(N[C@@H]4CCOC[C@H]4O)ncc3Cl)cc12 [TB-162] |  |  |  |  | ≤ 500 | ≤ 500 | ≤ 500
23 | CN1C(=O)CCn2c1nc1c(F)cc(-c3nc(N[C@@H]4CCOC[C@H]4O)ncc3Cl)cc12 [TB-46, 7-(5-chloro-2-(((3S,4R)-3-hydroxytetrahydro-2H-pyran-4-yl)amino)pyrimidin-4-yl)-9-fluoro-1-methyl-3,4-dihydrobenzo[4,5]imidazo[1,2-a]pyrimidin-2(1H)-one] |  | ≤ 500 | ≤ 500 | ≤ 500 |  |  | 
24 | CC(C)n1c(N2CC(O)C2)nc2c(F)cc(-c3nc(N[C@@H]4CCOC[C@H]4O)ncc3Cl)cc21 [TB-14, 1-(6-(5-chloro-2-(((38,4R)-3-hydroxytetrahydro-2H-pyran-4-yl)amino)pyrimidin-4-yl)-4-fluoro-1-isopropyl-1H-benzo[d]imidazol-2-yl)azetidin-3-ol] |  | ≤ 500 | ≤ 500 | ≤ 500 |  |  | 
25 | CC1CCN(C)c2nc3c(F)cc(-c4nc(N[C@@H]5CCOC[C@H]5O)ncc4Cl)cc3n21 (mixture of isomers) [TB-44, (3S,4R)-4-((5-chloro-4-(9-fluoro-1,4-dimethyl-1,2,3,4-tetrahydrobenzo[4,5]imidazo[1,2-a]pyrimidin-7-yl)pyrimidin-2-yl)amino)tetrahydro-2H-pyran-3-ol] |  | ≤ 500 | ≤ 500 | ≤ 500 |  |  | 
